Measured values as given in patent publication US10167297B2, “Substituted pyridine compounds having herbicidal activity” (BASF SE, priority 2014, dated 2019).

Columns and labels:
Type in all cases: in vivo
Polygonum convolvulus [1] = experiment: greenhouse post-emergence herbicidal activity (use examples); conditions: POLCO, 0.063 kg/ha, scale 0 to 100
Text: (§1) The seeds of the test plants were sown separately for each species. For the pre-emergence treatment, the active ingredients, which had been suspended or emulsified in water, were applied directly after sowing by means of finely distributing nozzles. The containers were irrigated gently to promote germination and growth and subsequently covered with transparent plastic hoods until the plants had rooted. This cover caused uniform germination of the test plants, unless this had been impaired by the active ingredients. For the post-emergence treatment, the test plants were first grown to a height of 3 to 15 cm, depending on the plant habit, and only then treated with the active ingredients which had been suspended or emulsified in water. For this purpose, the test plants were either sown directly and grown in the same containers, or they were first grown separately as seedlings and transplanted into the test containers a few days prior to treatment. Depending on the species, the plants were kept at 10-25° C. or 20-35° C., respectively. The test period extended over 2 to 4 weeks. During this time, the plants were tended, and their response to the individual treatments was evaluated. Evaluation was carried out using a scale from 0 to 100. 100 means no emergence of the plants, or complete destruction of at least the aerial moieties, and 0 means no damage, or normal course of growth. A good herbicidal activity is given at values of at least 70 and a very good herbicidal activity is given at values of at least 85. The plants used in the greenhouse experiments were of the following species: [table]

Setaria viridis [2] = experiment: as above; conditions: SETVI, 0.063 kg/ha, scale 0 to 100
Text: as §1

Stellaria media = experiment: as above; conditions: STEME, scale 0 to 100
Text: as §1

Zea mays [3] = experiment: greenhouse post-emergence herbicidal activity on crop plant corn (use examples); conditions: ZEAMX (corn, crop plant), scale 0 to 100
Text: as §1

Poa annua = experiment: greenhouse post-emergence herbicidal activity (use examples); conditions: POAAN, 0.031 kg/ha, scale 0 to 100
Text: as §1

Thlaspi arvense = experiment: as above; conditions: THLAR, 0.031 kg/ha, scale 0 to 100
Text: as §1

Setaria faberi = experiment: as above; conditions: SETFA, scale 0 to 100
Text: as §1

Amaranthus retroflexus = experiment: as above; conditions: AMARE, 0.050 kg/ha, scale 0 to 100
Text: as §1

Echinocloa crus-galli [4] = experiment: as above; conditions: Echinochloa crus-galli, ECHCG, 0.050 kg/ha, scale 0 to 100
Text: as §1

Abuthilon avicennae = experiment: comparative greenhouse post-emergence herbicidal activity; conditions: ABUTH, 20 days, scale 0 to 100
Experimental: (§2) The herbicidal activity of the compounds I-5 (N-[2,6-dichloro-3-(8-hydroxy-6,6-dioxo-5H-thiopyrano[4,3-b]pyridin-7-yl)phenyl]-N-methyl-acetamide) and 1-19 (Methyl N-[2,6-dichloro-3-(8-hydroxy-5,5-dimethyl-6,6-dioxo-thiopyrano[4,3-b]pyridin-7-yl)phenyl]-N-methyl-carbamate) according to this invention was tested in comparison with compound I-5 disclosed on page 147 of WO 2012/084755 A1 (not of the invention). These comparative experiments were performed in greenhouse by using the following procedure:
(§3) The culture containers used were plastic flowerpots containing loamy sand with approximately 3.0% of humus as the substrate. The seeds of the test plants were sown separately for each species.
(§4) For the post-emergence treatment, the test plants were first grown to a height of 3 to 15 cm, depending on the plant habit, and only then treated with the active ingredients which had been suspended or emulsified in water using a volume of 375 I/ha and 1% of an Adjuvant. For this purpose, the test plants were either sown directly and grown in the same containers, or they were first grown separately as seedlings and transplanted into the test containers a few days prior to treatment.
(§5) Depending on the species, the plants were kept at 10-25° C. (cold season grasses) or 20-35° C. (warm season grasses), respectively.
(§6) The test period extended over 20 days. During this time, the plants were tended, and their response to the individual treatments was evaluated.
(§7) Evaluation was carried out using a scale from 0 to 100. 100 means complete destruction of at least the aerial moieties, and 0 means no damage, or normal course of growth. A good herbicidal activity is given at values of at least 70 and a very good herbicidal activity is given at values of at least 85.
(§8) The plants used in the greenhouse experiments were of the following species:
(§9) The application rates in the post-emergence treatment were 0.1, 0.05 and 0.025 kg/ha, respectively.

Ambrosia artimisifolio = experiment: as above; conditions: AMBEL, 20 days, scale 0 to 100
Experimental: as §2, §3, §4, §5, §6, §7, §8, §9

Avena Fatua = experiment: as above; conditions: AVEFA, 20 days, scale 0 to 100
Experimental: as §2, §3, §4, §5, §6, §7, §8, §9

Bromus steliris = experiment: as above; conditions: BROST, 20 days, scale 0 to 100
Experimental: as §2, §3, §4, §5, §6, §7, §8, §9

Digitaria sanguine = experiment: as above; conditions: DIGSA, 20 days, scale 0 to 100
Experimental: as §2, §3, §4, §5, §6, §7, §8, §9

Echinocloa crus-galli [5] = experiment: as above; conditions: ECHCG, 20 days, scale 0 to 100
Experimental: as §2, §3, §4, §5, §6, §7, §8, §9

Lolium Multiflori = experiment: as above; conditions: LOLMU, 20 days, scale 0 to 100
Experimental: as §2, §3, §4, §5, §6, §7, §8, §9

Polygonum convolvulus [6] = experiment: as above; conditions: POLCO, 20 days, scale 0 to 100
Experimental: as §2, §3, §4, §5, §6, §7, §8, §9

Setaria viridis [7] = experiment: as above; conditions: SETVI, 20 days, scale 0 to 100
Experimental: as §2, §3, §4, §5, §6, §7, §8, §9

Zea mays [8] = experiment: comparative greenhouse post-emergence herbicidal activity on crop plant corn; conditions: ZEAMX (corn, crop plant), 20 days, scale 0 to 100
Experimental: as §2, §3, §4, §5, §6, §7, §8, §9

Structure (SMILES): CN(C(=O)C1CC1)c1c(Cl)ccc(C2=C(O)c3ncccc3C(C)(C)S2(=O)=O)c1Cl [Compound I-9, N-[2,6-dichloro-3-(8-hydroxy-5,5-dimethyl-6,6-dioxo-thiopyrano[4,3-b]pyridin-7-yl)phenyl]-N-methyl-cyclopropanecarboxamide]
- Herbicidal activity (Polygonum convolvulus [1]): 95
- Herbicidal activity (Setaria viridis [2]): 95
- Herbicidal activity (Stellaria media; 0.063 kg/ha): 100
- plant injury at 63 g/ha (Zea mays [3]; 0.063 kg/ha): 5%

Structure (SMILES): CCC(=O)N(C)c1c(Cl)ccc(C2=C(O)c3ncccc3C(C)(C)S2(=O)=O)c1Cl [Compound I-10, N-[2,6-dichloro-3-(8-hydroxy-5,5-dimethyl-6,6-dioxo-thiopyrano[4,3-b]pyridin-7-yl)phenyl]-N-methyl-propanamide]
- Herbicidal activity (Poa annua): 98
- Herbicidal activity (Stellaria media; 0.031 kg/ha): 100
- Herbicidal activity (Thlaspi arvense): 100
- plant injury at 31 g/ha (Zea mays [3]; 0.031 kg/ha): 30%

Structure (SMILES): CN(C(=O)C(F)F)c1c(Cl)ccc(C2=C(O)c3ncccc3C(C)(C)S2(=O)=O)c1Cl [Compound I-18, N-[2,6-dichloro-3-(8-hydroxy-5,5-dimethyl-6,6-dioxo-thiopyrano[4,3-b]pyridin-7-yl)phenyl]-2,2-difluoro-N-methyl-acetamide]
- Herbicidal activity (Setaria faberi; 0.125 kg/ha): 98
- Herbicidal activity (Stellaria media; 0.125 kg/ha): 100
- plant injury at 125 g/ha (Zea mays [3]; 0.125 kg/ha): 30%

Structure (SMILES): COC(=O)N(C)c1c(Cl)ccc(C2=C(O)c3ncccc3C(C)(C)S2(=O)=O)c1Cl [Compound I-19, Methyl N-[2,6-dichloro-3-(8-hydroxy-5,5-dimethyl-6,6-dioxo-thiopyrano[4,3-b]pyridin-7-yl)phenyl]-N-methyl-carbamate]
- Herbicidal activity (Amaranthus retroflexus): 98
- pest or weed control at 50 g/ha (Echinocloa crus-galli [4]): 95%
- Herbicidal activity (Setaria faberi; 0.050 kg/ha): 98
- plant injury at 50 g/ha (Zea mays [3]; 0.050 kg/ha): 20%
- Herbicidal activity (Abuthilon avicennae; 0.025 kg/ha): 75
- Herbicidal activity (Abuthilon avicennae; 0.05 kg/ha): 85
- Herbicidal activity (Abuthilon avicennae; 0.1 kg/ha): 98
- Herbicidal activity (Ambrosia artimisifolio; 0.025 kg/ha): 85
- Herbicidal activity (Ambrosia artimisifolio; 0.05 kg/ha): 95
- Herbicidal activity (Ambrosia artimisifolio; 0.1 kg/ha): 90
- Herbicidal activity (Avena Fatua; 0.025 kg/ha): 50
- Herbicidal activity (Avena Fatua; 0.05 kg/ha): 80
- Herbicidal activity (Avena Fatua; 0.1 kg/ha): 90
- Herbicidal activity (Bromus steliris; 0.025 kg/ha): 80
- Herbicidal activity (Bromus steliris; 0.05 kg/ha): 85
- Herbicidal activity (Bromus steliris; 0.1 kg/ha): 95
- Herbicidal activity (Digitaria sanguine; 0.025 kg/ha): 95
- Herbicidal activity (Digitaria sanguine; 0.05 kg/ha): 98
- Herbicidal activity (Digitaria sanguine; 0.1 kg/ha): 95
- Herbicidal activity (Echinocloa crus-galli [5]; 0.025 kg/ha): 85
- Herbicidal activity (Echinocloa crus-galli [5]; 0.05 kg/ha): 90
- Herbicidal activity (Echinocloa crus-galli [5]; 0.1 kg/ha): 95
- Herbicidal activity (Lolium Multiflori; 0.025 kg/ha): 25
- Herbicidal activity (Lolium Multiflori; 0.05 kg/ha): 35
- Herbicidal activity (Lolium Multiflori; 0.1 kg/ha): 75
- Herbicidal activity (Polygonum convolvulus [6]; 0.025 kg/ha): 45
- Herbicidal activity (Polygonum convolvulus [6]; 0.05 kg/ha): 45
- Herbicidal activity (Polygonum convolvulus [6]; 0.1 kg/ha): 95
- Herbicidal activity (Setaria viridis [7]; 0.025 kg/ha): 85
- Herbicidal activity (Setaria viridis [7]; 0.05 kg/ha): 100
- Herbicidal activity (Setaria viridis [7]; 0.1 kg/ha): 100
- Herbicidal activity (Zea mays [8]; 0.025 kg/ha): 15
- Herbicidal activity (Zea mays [8]; 0.05 kg/ha): 35
